Source: patent US4542018A, “Teichomycin A2 pure single factors 1, 2, 3, 4 and 5 and method for their production” (Gruppo Lepetit S.p.A., priority 1982, dated 1985)

Tests used:
Staphylococcus aureus = assay: In vitro antibacterial activity (MIC), two-fold dilution in microtiter system; type: cell-based; conditions: 5 tested strains, clinical isolates, Penassay broth, 18-24 h at 37° C.
Description: (§1) Penassay broth (Difco) and Todd-Hewitt broth (Difco) were used for staphylococci and streptococci respectively. Overnight broth cultures were diluted so that the final inoculum was about 10^3 colony forming units/ml.

[1] = test system: Staphylococcus epidermidis; assay: as above; type: cell-based; conditions: 4 tested strains, clinical isolates, Penassay broth, 18-24 h at 37° C.
Description: as §1

Streptococcus agalactiae = assay: as above; type: cell-based; conditions: 1 tested strain, clinical isolate, Todd-Hewitt broth, 18-24 h at 37° C.
Description: as §1

Streptococcus bovis = assay: as above; type: cell-based; conditions: 1 tested strain, clinical isolate, Todd-Hewitt broth, 18-24 h at 37° C.
Description: as §1

Streptococcus faecalis = assay: as above; type: cell-based; conditions: 5 tested strains, clinical isolates, Todd-Hewitt broth, 18-24 h at 37° C.
Description: as §1

Streptococcus mitis = assay: as above; type: cell-based; conditions: 1 tested strain, clinical isolate, Todd-Hewitt broth, 18-24 h at 37° C.
Description: as §1

Streptococcus pneumoniae = assay: as above; type: cell-based; conditions: 6 tested strains, clinical isolates, Todd-Hewitt broth, 18-24 h at 37° C.
Description: as §1

Streptococcus pyogenes = assay: as above; type: cell-based; conditions: 7 tested strains, clinical isolates, Todd-Hewitt broth, 18-24 h at 37° C.
Description: as §1

Streptococcus salivarius = assay: as above; type: cell-based; conditions: 1 tested strain, clinical isolate, Todd-Hewitt broth, 18-24 h at 37° C.
Description: as §1

Streptococcus sanguis = assay: as above; type: cell-based; conditions: 1 tested strain, clinical isolate, Todd-Hewitt broth, 18-24 h at 37° C.
Description: as §1

S. aureus ATCC 6538 = assay: Microbiological potency by agar diffusion method, Teichomycin A2 complex as standard; type: cell-based; conditions: 2.5-20 μg/ml, 37° C., 18 hours
Description: In particular an adeguate amount of Teichomycin A2 factor 1, Teichomycin A2 factor 2, Teichomycin A2 factor 3, Teichomycin A2 factor 4, Teichomycin A2 factor 5 and Teichomycin A2 complex used as the standard is dissolved in dimethylformamide at a concentration of 2000 μg/ml. These solutions are further diluted using phosphate buffer 0.067 M pH 7.4 supplemented with 1% bovine serum in order to provide the following concentrations: 2.5, 5, 10, and 20 μg/ml.
Filter paper discs are then soaked into the sample solutions and placed at regular intervals on the surface of agar plates seeded with a suspension of the test microorganism. The plates are incubated at 37° C. for 18 hours and then the diameter of the inhibition zones are measured. The data obtained are fed into a computer to calculate the potency of the individual factors relative to the complex.

Solubility = type: physicochemical; conditions: for solubility in water: water at pH>7.0 or at pH<2
Gram-positive bacteria = assay: In vitro antibacterial spectrum; type: cell-based
Description: as §1

S. pneumoniae L 44 = assay: In vivo antibacterial activity, experimental infection in mice; conditions: s.c.
Description: (§2) Teichomycin A2 factors 2,3,4 and 5 were tested in the experimental infections caused by S. pneumoniae and by S. pyogenes in mice. The experiments were carried out in comparison with Teichomycin A2 complex.

S. pyogenes L 49 = assay: as above; conditions: s.c.
Description: as §2

SMILES	M.I.C. (Staphylococcus aureus)	M.I.C. [1]	M.I.C. (Streptococcus agalactiae)	M.I.C. (Streptococcus bovis)	M.I.C. (Streptococcus faecalis)	M.I.C. (Streptococcus mitis)	M.I.C. (Streptococcus pneumoniae)	M.I.C. (Streptococcus pyogenes)	M.I.C. (Streptococcus salivarius)	M.I.C. (Streptococcus sanguis)	microbiological potency relative to the complex (S. aureus ATCC 6538)	solubility in chloroform, benzene, n-hexane, acetonitrile, ethyl ether, acetone, ethyl acetate, carbon tetrachloride (Solubility)	solubility in dimethylformamide, dimethylsulfoxide and propyleneglycol (Solubility)	solubility in methanol and ethanol (Solubility)	solubility in methylcellosolve and glycerol (Solubility)	solubility in water (Solubility)	in vitro antibacterial activity (spectrum) (Gram-positive bacteria)	ED50 (S. pneumoniae L 44)	ED50 (S. pyogenes L 49)
CCCCC/C=C\CCC(=O)N[C@H]1[C@H](Oc2c3cc4cc2Oc2ccc(cc2Cl)[C@@H](O[C@@H]2O[C@H](CO)[C@@H](O)[C@H](O)[C@H]2NC(C)=O)[C@@H]2NC(=O)[C@H](NC(=O)[C@@H]4NC(=O)[C@H]4NC(=O)[C@@H](Cc5ccc(c(Cl)c5)O3)NC(=O)[C@H](N)c3ccc(O)c(c3)Oc3cc(O)cc4c3)c3ccc(O)c(c3)-c3c(O[C@H]4O[C@H](CO)[C@@H](O)[C@H](O)[C@@H]4O)cc(O)cc3[C@@H](C(=O)O)NC2=O)O[C@H](CO)[C@@H](O)[C@@H]1O [Teichomycin A2 factor 1]	0.8 to 1.6 µg/mL	0.2 to 1.6 µg/mL	0.1 µg/mL	0.4 µg/mL	0.2 to 0.4 µg/mL	0.025 µg/mL	0.1 to 0.2 µg/mL	0.05 to 0.1 µg/mL	0.2 µg/mL	0.1 µg/mL	841 U/mg	almost insoluble	freely soluble	poorly soluble	slightly soluble	freely soluble	mainly active against Gram-positive bacteria		
CC(=O)N[C@H]1[C@H](O[C@@H]2c3ccc(c(Cl)c3)Oc3cc4cc(c3O[C@@H]3O[C@H](CO)[C@@H](O)[C@H](O)[C@H]3NC(=O)CCCCCCC(C)C)Oc3ccc(cc3Cl)C[C@H]3NC(=O)[C@H](N)c5ccc(O)c(c5)Oc5cc(O)cc(c5)[C@H](NC3=O)C(=O)N[C@H]4C(=O)N[C@H]3C(=O)N[C@@H]2C(=O)N[C@H](C(=O)O)c2cc(O)cc(O[C@H]4O[C@H](CO)[C@@H](O)[C@H](O)[C@@H]4O)c2-c2cc3ccc2O)O[C@H](CO)[C@@H](O)[C@@H]1O [Teichomycin A2 factor 2]	0.8 to 1.6 µg/mL	0.1 to 1.6 µg/mL	0.1 µg/mL	0.4 µg/mL	0.1 to 0.4 µg/mL	0.025 µg/mL	0.05 to 0.1 µg/mL	0.025 to 0.1 µg/mL	0.2 µg/mL	0.1 µg/mL	1086 U/mg	almost insoluble	freely soluble	poorly soluble	slightly soluble	freely soluble	mainly active against Gram-positive bacteria	0.28 (0.22-0.34) mg/kg/day	0.15 (0.13-0.18) mg/kg/day
CCCCCCCCCC(=O)N[C@H]1[C@H](Oc2c3cc4cc2Oc2ccc(cc2Cl)[C@@H](O[C@@H]2O[C@H](CO)[C@@H](O)[C@H](O)[C@H]2NC(C)=O)[C@@H]2NC(=O)[C@H](NC(=O)[C@@H]4NC(=O)[C@H]4NC(=O)[C@H](Cc5ccc(c(Cl)c5)O3)NC(=O)[C@H](N)c3ccc(O)c(c3)Oc3cc(O)cc4c3)c3ccc(O)c(c3)-c3c(O[C@H]4O[C@H](CO)[C@@H](O)[C@H](O)[C@@H]4O)cc(O)cc3[C@@H](C(=O)O)NC2=O)O[C@H](CO)[C@@H](O)[C@@H]1O [Teichomycin A2 factor 3]	0.4 to 0.8 µg/mL	0.2 to 0.8 µg/mL	0.05 µg/mL	0.2 µg/mL	0.1 to 0.2 µg/mL	0.0125 µg/mL	0.05 to 0.1 µg/mL	0.025 to 0.05 µg/mL	0.1 µg/mL	0.1 µg/mL	1131 U/mg	almost insoluble	freely soluble	poorly soluble	slightly soluble	freely soluble	mainly active against Gram-positive bacteria	0.27 (0.23-0.32) mg/kg/day	0.13 (0.11-0.16) mg/kg/day
CCC(C)CCCCCCC(=O)N[C@H]1[C@H](Oc2c3cc4cc2Oc2ccc(cc2Cl)[C@@H](O[C@@H]2O[C@H](CO)[C@@H](O)[C@H](O)[C@H]2NC(C)=O)[C@@H]2NC(=O)[C@H](NC(=O)[C@@H]4NC(=O)[C@H]4NC(=O)[C@@H](Cc5ccc(c(Cl)c5)O3)NC(=O)[C@H](N)c3ccc(O)c(c3)Oc3cc(O)cc4c3)c3ccc(O)c(c3)-c3c(O[C@H]4O[C@H](CO)[C@@H](O)[C@H](O)[C@@H]4O)cc(O)cc3[C@@H](C(=O)O)NC2=O)O[C@H](CO)[C@@H](O)[C@@H]1O (stereo partly shown) [Teichomycin A2 factor 4]	0.2 to 0.8 µg/mL	0.2 to 0.8 µg/mL	0.1 µg/mL	0.4 µg/mL	0.1 to 0.4 µg/mL	0.025 µg/mL	0.05 to 0.1 µg/mL	0.006 to 0.05 µg/mL	0.05 µg/mL	0.05 µg/mL	1066 U/mg	almost insoluble	freely soluble	poorly soluble	slightly soluble	freely soluble	mainly active against Gram-positive bacteria		
CC(=O)N[C@H]1[C@H](O[C@@H]2c3ccc(c(Cl)c3)Oc3cc4cc(c3O[C@@H]3O[C@H](CO)[C@@H](O)[C@H](O)[C@H]3NC(=O)CCCCCCCC(C)C)Oc3ccc(cc3Cl)C[C@H]3NC(=O)[C@H](N)c5ccc(O)c(c5)Oc5cc(O)cc(c5)[C@H](NC3=O)C(=O)N[C@H]4C(=O)N[C@H]3C(=O)N[C@@H]2C(=O)N[C@H](C(=O)O)c2cc(O)cc(O[C@H]4O[C@H](CO)[C@@H](O)[C@H](O)[C@@H]4O)c2-c2cc3ccc2O)O[C@H](CO)[C@@H](O)[C@@H]1O [Teichomycin A2 factor 5]	0.2 to 0.8 µg/mL	0.2 to 0.8 µg/mL	0.1 µg/mL	0.4 µg/mL	0.1 to 0.4 µg/mL	0.025 µg/mL	0.05 to 0.1 µg/mL	0.006 to 0.05 µg/mL	0.05 µg/mL	0.05 µg/mL	954 U/mg	almost insoluble	freely soluble	poorly soluble	slightly soluble	freely soluble	mainly active against Gram-positive bacteria	0.13 (0.10-0.15) mg/kg/day	0.10 (0.098-0.13) mg/kg/day
